Data as given in ChEMBL document CHEMBL1201862, “PubChem BioAssay data set” (2004).
One block for each molecule: values may come before it. Activity calls are given as the source filed them.

What was measured:
[1] = target: SUMO-activating enzyme (Homo sapiens, UniProt Q9UBT2); assay: SUMOylation inhibitor hit validation, confirmation, SUMOylation inhibitor project, biochemical, AlphaScreen (AID 2018); type: functional
[2] = target: Serine/threonine-protein phosphatase (Homo sapiens, UniProt Q9BPW0); assay: PP5 phosphatase inhibitors, dose response, biochemical, fluorescence (AID 2395)
[3] = target: T1, Sentrin-specific protease 6 (Homo sapiens, UniProt Q9GZR1); type: functional
T1 sequence (Q9GZR1 whole entry): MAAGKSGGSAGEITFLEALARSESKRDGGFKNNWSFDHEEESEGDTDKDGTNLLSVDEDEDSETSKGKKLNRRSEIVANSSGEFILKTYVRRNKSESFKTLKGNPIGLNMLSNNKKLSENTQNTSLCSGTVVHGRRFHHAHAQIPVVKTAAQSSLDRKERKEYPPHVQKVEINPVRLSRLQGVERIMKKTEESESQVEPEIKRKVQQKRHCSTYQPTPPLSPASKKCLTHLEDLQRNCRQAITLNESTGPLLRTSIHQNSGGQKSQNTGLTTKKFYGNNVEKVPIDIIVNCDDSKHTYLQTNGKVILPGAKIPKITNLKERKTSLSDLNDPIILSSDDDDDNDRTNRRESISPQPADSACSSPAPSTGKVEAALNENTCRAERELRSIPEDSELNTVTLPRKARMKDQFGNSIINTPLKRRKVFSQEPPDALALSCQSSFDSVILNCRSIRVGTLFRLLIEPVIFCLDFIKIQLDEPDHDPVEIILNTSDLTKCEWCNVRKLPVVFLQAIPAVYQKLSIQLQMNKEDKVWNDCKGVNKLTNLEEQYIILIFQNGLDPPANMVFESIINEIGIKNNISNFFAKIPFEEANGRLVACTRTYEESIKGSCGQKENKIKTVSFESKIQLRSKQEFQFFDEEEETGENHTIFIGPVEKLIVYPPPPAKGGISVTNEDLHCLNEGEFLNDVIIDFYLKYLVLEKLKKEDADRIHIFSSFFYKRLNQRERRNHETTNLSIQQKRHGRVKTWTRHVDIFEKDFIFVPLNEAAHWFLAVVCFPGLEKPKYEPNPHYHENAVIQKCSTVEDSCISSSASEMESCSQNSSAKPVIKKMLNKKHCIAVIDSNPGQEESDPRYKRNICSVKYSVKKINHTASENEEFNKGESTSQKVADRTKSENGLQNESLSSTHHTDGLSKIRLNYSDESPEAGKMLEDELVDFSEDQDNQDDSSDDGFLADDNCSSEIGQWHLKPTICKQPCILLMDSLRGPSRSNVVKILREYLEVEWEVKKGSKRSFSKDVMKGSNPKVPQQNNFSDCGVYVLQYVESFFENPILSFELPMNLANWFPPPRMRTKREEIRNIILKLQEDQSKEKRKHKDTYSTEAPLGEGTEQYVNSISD

[4] = target: T1, Sentrin-specific protease 6; assay: SAR Analysis of small molecule inhibitors of Sentrin-specific protease 6 (SENP6) using a Luminescent assay. [Related pubchem assays (depositor defined):AID2582, AID2599]; type: functional
[5] = target: T2, Sentrin-specific protease 7 (Homo sapiens, UniProt Q9BQF6); assay: SENP7 protease inhibitors, SAR follow-up, biochemical, luminescence (AID 504497); type: functional
T2 sequence (Q9BQF6 whole entry): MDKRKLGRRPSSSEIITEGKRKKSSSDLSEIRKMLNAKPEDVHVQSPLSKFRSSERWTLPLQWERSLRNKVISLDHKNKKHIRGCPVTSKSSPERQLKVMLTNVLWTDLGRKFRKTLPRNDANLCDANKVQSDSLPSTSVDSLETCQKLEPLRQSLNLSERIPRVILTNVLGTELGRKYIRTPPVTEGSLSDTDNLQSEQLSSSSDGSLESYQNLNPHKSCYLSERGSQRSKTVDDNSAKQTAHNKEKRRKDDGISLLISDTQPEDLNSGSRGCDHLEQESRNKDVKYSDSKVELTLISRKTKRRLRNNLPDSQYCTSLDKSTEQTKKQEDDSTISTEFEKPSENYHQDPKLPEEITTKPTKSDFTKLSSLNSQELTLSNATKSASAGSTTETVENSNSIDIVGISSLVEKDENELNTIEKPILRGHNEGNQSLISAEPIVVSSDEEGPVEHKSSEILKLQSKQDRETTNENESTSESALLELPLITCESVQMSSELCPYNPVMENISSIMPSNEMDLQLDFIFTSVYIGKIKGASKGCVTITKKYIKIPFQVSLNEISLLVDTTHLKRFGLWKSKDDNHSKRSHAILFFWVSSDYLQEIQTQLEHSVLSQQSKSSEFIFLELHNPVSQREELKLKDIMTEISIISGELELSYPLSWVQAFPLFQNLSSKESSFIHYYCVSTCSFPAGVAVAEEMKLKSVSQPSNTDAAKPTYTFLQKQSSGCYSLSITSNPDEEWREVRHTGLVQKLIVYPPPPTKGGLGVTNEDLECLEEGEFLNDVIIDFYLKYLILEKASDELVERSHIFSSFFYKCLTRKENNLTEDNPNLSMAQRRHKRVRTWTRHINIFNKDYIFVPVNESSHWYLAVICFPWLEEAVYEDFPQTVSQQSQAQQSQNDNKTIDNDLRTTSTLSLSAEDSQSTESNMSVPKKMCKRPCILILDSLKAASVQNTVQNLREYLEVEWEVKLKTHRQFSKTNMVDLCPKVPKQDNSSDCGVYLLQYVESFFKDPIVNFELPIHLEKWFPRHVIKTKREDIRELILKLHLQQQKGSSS

[6] = target: Dual specificity mitogen-activated protein kinase kinase 1 (Homo sapiens, UniProt Q02750); assay: Navigating the Kinome. Panel member name: MAP2K1; type: functional
[7] = target: 5'-AMP-activated protein kinase catalytic subunit alpha-1 (Homo sapiens, UniProt Q13131); type: functional
[8] = target: ALK tyrosine kinase receptor (Homo sapiens, UniProt Q9UM73); type: functional;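 also: ALK tested as one member of a kinase panel screen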
[9] = target: Macrophage-stimulating protein receptor (Homo sapiens, UniProt Q04912); assay: Navigating the Kinome. Panel member name: MST1R; type: functional
[10] = target: T3, Dual specificity protein phosphatase 6 (Rattus norvegicus, UniProt Q64346); assay: MKP-3 phosphatase inhibitors, primary screen, biochemical, rat enzyme, in vitro (AID 425)
T3 sequence (Q64346 whole entry): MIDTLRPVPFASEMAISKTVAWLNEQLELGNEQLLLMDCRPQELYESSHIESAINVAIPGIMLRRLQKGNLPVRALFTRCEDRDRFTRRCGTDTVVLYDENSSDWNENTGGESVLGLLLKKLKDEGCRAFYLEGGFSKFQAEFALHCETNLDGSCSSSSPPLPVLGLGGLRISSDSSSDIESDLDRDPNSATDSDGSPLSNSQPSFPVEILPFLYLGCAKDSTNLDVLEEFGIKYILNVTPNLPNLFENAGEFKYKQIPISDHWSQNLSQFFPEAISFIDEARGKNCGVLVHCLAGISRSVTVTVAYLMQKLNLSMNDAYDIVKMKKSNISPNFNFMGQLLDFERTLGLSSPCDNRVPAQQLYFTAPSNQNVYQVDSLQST

Sequence of ALK tyrosine kinase receptor (Q9UM73 whole entry): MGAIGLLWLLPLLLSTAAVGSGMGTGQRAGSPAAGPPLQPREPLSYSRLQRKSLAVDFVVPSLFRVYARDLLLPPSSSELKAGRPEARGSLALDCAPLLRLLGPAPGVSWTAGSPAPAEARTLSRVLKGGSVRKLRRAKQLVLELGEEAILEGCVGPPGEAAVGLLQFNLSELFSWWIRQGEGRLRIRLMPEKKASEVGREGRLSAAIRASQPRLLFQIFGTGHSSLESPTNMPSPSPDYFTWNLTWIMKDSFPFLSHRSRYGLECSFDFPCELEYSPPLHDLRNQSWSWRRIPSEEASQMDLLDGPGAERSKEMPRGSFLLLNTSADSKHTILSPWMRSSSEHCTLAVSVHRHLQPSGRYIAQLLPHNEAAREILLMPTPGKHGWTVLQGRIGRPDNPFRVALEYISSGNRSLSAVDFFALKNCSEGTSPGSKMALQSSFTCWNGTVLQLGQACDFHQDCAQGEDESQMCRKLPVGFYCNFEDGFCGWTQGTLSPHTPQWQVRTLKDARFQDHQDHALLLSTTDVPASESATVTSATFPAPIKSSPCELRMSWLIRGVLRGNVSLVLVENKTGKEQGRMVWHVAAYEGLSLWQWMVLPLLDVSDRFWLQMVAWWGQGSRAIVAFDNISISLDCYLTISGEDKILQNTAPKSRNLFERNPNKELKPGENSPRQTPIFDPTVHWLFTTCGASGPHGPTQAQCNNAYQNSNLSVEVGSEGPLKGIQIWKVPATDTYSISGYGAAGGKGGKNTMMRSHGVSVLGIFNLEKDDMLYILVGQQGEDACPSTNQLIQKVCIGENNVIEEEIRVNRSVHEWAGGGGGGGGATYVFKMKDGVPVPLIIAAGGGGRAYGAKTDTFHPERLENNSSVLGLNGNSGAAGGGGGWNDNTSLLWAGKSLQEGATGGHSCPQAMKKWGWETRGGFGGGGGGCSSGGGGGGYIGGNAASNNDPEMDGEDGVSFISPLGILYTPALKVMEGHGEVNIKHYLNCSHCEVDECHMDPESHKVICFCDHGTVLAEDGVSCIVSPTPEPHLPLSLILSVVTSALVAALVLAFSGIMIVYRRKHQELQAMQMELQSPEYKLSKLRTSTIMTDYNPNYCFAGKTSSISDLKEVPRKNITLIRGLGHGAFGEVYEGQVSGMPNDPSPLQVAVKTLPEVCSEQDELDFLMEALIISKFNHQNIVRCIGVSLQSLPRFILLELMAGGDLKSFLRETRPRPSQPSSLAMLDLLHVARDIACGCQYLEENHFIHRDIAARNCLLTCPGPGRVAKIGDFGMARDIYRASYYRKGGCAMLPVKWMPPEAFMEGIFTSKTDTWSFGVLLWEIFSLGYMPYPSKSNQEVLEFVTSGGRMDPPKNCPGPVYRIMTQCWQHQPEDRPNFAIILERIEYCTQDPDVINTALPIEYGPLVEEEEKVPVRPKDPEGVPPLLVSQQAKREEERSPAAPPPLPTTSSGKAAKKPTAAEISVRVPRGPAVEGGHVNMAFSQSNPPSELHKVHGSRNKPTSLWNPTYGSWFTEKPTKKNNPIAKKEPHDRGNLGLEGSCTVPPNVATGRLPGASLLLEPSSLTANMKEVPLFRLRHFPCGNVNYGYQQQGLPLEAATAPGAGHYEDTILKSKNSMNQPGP
Sequence of SUMO-activating enzyme (Q9UBE0 whole entry): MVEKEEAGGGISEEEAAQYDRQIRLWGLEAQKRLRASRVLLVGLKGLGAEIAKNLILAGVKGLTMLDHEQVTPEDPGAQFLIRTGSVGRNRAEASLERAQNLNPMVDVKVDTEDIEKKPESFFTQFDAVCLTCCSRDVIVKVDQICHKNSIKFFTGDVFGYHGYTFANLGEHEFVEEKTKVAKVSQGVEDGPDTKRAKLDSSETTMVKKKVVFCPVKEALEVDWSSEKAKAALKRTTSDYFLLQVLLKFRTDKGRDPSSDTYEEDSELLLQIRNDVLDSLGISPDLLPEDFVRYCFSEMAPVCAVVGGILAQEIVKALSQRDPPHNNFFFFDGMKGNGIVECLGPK
Sequence of SUMO-activating enzyme (Q9UBT2 whole entry): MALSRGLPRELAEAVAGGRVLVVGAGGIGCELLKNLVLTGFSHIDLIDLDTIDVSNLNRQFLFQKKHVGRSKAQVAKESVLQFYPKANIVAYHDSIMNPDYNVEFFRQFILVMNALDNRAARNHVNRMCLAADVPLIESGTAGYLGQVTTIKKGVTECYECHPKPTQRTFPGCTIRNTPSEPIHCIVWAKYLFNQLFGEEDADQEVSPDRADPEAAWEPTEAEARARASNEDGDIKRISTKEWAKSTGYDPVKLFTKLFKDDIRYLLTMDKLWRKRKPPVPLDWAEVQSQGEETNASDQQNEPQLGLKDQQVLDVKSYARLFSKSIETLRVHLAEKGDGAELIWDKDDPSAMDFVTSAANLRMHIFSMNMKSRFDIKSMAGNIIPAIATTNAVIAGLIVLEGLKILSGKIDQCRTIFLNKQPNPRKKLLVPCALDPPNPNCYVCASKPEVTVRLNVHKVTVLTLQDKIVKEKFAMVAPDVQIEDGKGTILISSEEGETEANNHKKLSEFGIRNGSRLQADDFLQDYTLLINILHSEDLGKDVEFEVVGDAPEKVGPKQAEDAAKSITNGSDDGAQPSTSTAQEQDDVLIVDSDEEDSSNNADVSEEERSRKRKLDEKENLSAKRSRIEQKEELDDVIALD
Sequence of Dual specificity mitogen-activated protein kinase kinase 1 (Q02750 whole entry): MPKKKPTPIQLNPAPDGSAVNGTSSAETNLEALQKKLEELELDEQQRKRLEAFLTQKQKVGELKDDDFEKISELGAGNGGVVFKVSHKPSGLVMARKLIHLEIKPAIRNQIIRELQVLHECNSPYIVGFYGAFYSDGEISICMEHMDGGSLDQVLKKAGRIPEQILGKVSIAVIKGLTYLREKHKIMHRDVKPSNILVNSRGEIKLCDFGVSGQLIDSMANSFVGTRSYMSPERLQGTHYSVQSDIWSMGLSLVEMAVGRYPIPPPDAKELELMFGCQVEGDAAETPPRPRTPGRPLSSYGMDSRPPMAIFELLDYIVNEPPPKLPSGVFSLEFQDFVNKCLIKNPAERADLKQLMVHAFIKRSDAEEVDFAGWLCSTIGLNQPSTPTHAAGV
Sequence of Serine/threonine-protein phosphatase (Q9BPW0 whole entry): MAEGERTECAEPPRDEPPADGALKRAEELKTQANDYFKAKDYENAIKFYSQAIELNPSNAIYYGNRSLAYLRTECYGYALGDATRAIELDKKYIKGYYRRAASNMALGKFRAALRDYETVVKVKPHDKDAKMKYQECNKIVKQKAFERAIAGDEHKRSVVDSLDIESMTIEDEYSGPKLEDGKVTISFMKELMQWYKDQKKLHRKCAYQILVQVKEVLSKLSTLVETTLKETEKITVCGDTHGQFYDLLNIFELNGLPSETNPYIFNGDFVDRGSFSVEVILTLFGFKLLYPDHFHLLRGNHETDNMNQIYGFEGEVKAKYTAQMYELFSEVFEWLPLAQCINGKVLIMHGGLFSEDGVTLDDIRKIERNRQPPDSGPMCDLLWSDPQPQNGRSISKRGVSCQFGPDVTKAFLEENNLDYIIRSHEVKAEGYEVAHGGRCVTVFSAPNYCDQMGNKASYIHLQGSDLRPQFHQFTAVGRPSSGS
Sequence of Macrophage-stimulating protein receptor (Q04912 25-304 limits assumed): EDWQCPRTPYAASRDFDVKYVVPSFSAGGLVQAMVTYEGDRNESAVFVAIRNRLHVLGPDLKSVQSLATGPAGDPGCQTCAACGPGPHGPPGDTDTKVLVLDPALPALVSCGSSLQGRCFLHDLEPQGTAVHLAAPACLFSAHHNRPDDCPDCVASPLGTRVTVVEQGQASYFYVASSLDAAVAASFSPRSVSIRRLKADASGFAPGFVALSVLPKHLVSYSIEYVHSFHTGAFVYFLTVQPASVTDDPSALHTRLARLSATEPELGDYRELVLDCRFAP
Sequence of Macrophage-stimulating protein receptor (Q04912 310-1400 limits assumed): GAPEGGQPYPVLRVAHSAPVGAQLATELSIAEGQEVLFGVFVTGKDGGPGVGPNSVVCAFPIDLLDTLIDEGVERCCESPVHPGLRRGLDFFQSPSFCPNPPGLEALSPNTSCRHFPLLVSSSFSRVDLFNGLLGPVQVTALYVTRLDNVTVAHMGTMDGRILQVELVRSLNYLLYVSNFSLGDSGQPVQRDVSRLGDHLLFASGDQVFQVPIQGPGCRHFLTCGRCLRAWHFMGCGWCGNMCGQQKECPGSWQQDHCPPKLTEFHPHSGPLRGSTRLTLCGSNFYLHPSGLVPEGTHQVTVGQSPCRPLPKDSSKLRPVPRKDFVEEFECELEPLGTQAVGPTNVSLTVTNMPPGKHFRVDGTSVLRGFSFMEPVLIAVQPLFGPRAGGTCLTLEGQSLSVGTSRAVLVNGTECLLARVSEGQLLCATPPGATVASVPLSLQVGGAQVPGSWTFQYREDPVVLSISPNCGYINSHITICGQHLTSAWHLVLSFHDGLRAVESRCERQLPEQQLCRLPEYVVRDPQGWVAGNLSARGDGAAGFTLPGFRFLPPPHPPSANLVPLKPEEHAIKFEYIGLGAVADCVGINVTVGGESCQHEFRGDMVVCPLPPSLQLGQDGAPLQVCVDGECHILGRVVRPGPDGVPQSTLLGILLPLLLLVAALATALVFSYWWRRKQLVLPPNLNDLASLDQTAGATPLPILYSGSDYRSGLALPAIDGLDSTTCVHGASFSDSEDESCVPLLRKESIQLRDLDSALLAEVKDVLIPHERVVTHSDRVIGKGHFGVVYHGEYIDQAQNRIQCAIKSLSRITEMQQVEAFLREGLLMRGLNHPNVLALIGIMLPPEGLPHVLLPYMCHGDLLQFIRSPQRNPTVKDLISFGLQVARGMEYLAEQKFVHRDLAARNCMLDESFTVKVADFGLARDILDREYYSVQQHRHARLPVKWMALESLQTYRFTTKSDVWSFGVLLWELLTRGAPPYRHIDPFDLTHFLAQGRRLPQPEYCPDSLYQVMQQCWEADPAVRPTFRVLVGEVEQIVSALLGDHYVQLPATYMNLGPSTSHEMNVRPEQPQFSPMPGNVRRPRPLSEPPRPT

IC50 [1]: 1820 nM (active)
IC50 [2]: > 67000 nM (not active)
IC50 [3]: 1810 nM (active)
IC50 [4]: 1430 nM (active)
IC50 [5]: 2430 nM (active)
Compound: O=C(NNc1cc(N2CCCC2)nc(N2CCCC2)n1)c1ccc([N+](=O)[O-])cc1

Ki [6]: 2000 nM (active)
Ki [7]: 1580 nM (active)
Ki [8]: 2510 nM (active)
Ki [9]: 2000 nM (active)
Compound: O=C(Cc1cccs1)Nc1nc2ccccc2s1

Compound: O=S(=O)(O)c1cccc2c(N=Nc3ccc(O)c4ncccc34)cccc12
IC50 [10]: 71500 nM (active)
